# From US10975068B2, “6-aminopyridin-3-yl thiazoles as modulators of RORγT” (Janssen Pharmaceutica NV, priority 2016, dated 2021)
# Columns and labels:
# [1] = target: human RORγt ligand binding domain (RORγt LBD) (Homo sapiens (Human), UniProt P51449); test: RORγt ThermoFluor® assay (thermal shift binding); details: for Kd: read-out: ThermoFluor® Assay, Kd
# How it was run: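 His-tagged human RORγt LBD (0.065 mg/mL) with 60 μM 1,8-ANS in 100 mM Hepes pH 7.0, 10 mM NaCl, 2.5 mM GSH, 0.002% Tween-20 was heated at 1 °C/min.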
# [2] = target: T1, full-length human RORγt (Homo sapiens (Human), UniProt P51449); test: RORγt (full-length human) reporter assay, Conditions A; type: cell-based; details: for IC50: read-out: RORγt (FL) Reporter Assay A, IC50; for inhibition at 6 µM: read-out: RORγt (FL) Reporter Assay A, % inhibition @ 6 μM
# From the text: RORγt (Full-Length Human) Reporter Assay:
# Cells used in this assay were transiently co-transfected with three different plasmids, one expressing the GAL4-DNA binding domain (DBD)-RORγt fusion protein under control of a CMV promoter (NH2-Gal4-DBD:RORC-COOH in pCMV-BD, Stratagene #211342), and two reporter plasmids—the firefly luciferase reporter under control of a GAL4 promoter (pFR-Luc 2×GAL4) and Renilla luciferase reporter under control of CMV promoter (pRL-CMV, Promega # E2261). The full-length coding sequence was used for human RORγt, i.e., nucleotides 142-1635 of human RORγt, transcript variant 2, NCBI Accession: NM_001001523.1 (SEQ ID NO:1). HEK293T cells were plated at 35000 per well in 96-well plate in medium of MEM with 8.6% FBS. After 18-22 hours incubation, the transfection was carried out by using a PEI solution with 170.5 ng total DNA/well (50 ng pCMV-BD-ROR plus 20 ng of pFR-Luc reporter and 0.5 ng of pRL-CMV reporter plus 100 ng Carrier DNA (Clontech #630440) for each well). 4-6 hours after transfection, cells were treated with compounds for overnight in the medium with final concentration of FBS 1.1% and DMSO 0.1%. After overnight (16 to 20 hours) incubation, media were removed and cells were lysed with 20 μL 1× Passive Lysis Buffer (Promega) for 10-15 minutes. Luminescence was measured using a BMG LUMIstar OPTIMA plate reader, after addition of 75 μL/well firefly luciferase buffer, followed by 75 μL/well Renilla luciferase buffer. To calculate the effect of compounds on RORγt activity, firefly values were normalized against values of DMSO only and values of reference compound at saturating concentration, then further normalized against Renilla signals. IC50s were generated by plotting final Renilla normalized data against compound concentration and percent inhibition was calculated against DMSO control.
# [3] = tested on: IL-17 production by CD4 T cells; test: Human Th17 assay; type: cell-based; details: read-out: Human Th17 Assay, IC50
# From the text: The human Th17 assay tests the effect of RORγt modulatory compounds on IL-17 production by CD4 T cells under conditions which favor Th17 differentiation. Total CD4^+ T cells were isolated from the peripheral blood mononuclear cells (PBMC) of healthy donors using a CD4^+ T cell isolation kit II, following the manufacturer's instructions (Miltenyi Biotec). Cells were resuspended in a medium of RPMI-1640 supplemented with 10% fetal bovine serum, penicillin, streptomycin, glutamate, and β-mercaptoethanol and were added to 96-well plates at 1.5×10^5 per 100 μL per well. 50 μL of compound at titrated concentrations in DMSO were added into each well at final DMSO concentration at 0.2%. Cells were incubated for 1 hour, then 50 μL of Th17 cell differentiation medium was added to each well. The final concentrations of antibodies and cytokines (R&D Systems) in differentiation medium were: 3×10^6/mL anti-CD3/CD28 beads (prepared using human T cell activation/expansion kit, Miltenyi Biotec), 10 μg/mL anti-IL4, 10 μg/mL anti-IFNγ, 10 ng/mL IL1β, 10 ng/mL IL23, 50 ng/mL IL6, 3 ng/mL TGFβ and 20 U/mL IL2. Cells were cultured at 37° C. and 5% CO2 for 3 days. Supernatants were collected and the accumulated IL-17 in culture was measured by using MULTI-SPOT® Cytokine Plate following manufacture's instruction (Meso Scale Discovery). The plate was read using Sector Imager 6000, and IL-17 concentration was extrapolated from the standard curve. The IC50s were determined by GraphPad.
# [4] = target: T1, full-length human RORγt; test: RORγt (full-length human) reporter assay, Conditions B or C; type: cell-based; details: for IC50: read-out: RORγt (FL) Reporter Assay B or C, IC50
# How it was run: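 HEK293T cells transiently co-transfected with GAL4-DBD–full-length human RORγt (nt 142-1635, NM_001001523.1) plus GAL4-firefly and CMV-Renilla luciferase reporters; compounds added 4-6 h post-transfection for 16-20 h in 1.3% FBS, 0.1% DMSO. Firefly signal normalized to DMSO and saturating reference compound, then to Renilla; IC50 from concentration plots.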
# T1 sequence (P51449 other isoform, or with tags, fused parts or gaps): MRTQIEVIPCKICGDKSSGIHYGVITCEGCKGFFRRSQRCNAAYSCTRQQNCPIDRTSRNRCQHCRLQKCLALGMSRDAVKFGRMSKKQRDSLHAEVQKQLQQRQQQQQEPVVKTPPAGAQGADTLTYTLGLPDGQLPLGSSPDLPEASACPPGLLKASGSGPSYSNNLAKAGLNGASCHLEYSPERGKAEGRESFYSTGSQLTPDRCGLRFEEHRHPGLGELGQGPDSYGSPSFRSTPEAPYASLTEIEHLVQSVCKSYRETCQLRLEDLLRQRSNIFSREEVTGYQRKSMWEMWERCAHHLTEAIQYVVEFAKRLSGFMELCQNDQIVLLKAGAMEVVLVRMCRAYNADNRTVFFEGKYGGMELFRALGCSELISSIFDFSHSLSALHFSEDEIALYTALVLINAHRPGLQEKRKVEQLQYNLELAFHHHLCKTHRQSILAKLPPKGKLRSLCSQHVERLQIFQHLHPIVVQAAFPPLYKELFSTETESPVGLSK
# human RORγt ligand binding domain (RORγt LBD), sequence (P51449 other isoform, or with tags, fused parts or gaps): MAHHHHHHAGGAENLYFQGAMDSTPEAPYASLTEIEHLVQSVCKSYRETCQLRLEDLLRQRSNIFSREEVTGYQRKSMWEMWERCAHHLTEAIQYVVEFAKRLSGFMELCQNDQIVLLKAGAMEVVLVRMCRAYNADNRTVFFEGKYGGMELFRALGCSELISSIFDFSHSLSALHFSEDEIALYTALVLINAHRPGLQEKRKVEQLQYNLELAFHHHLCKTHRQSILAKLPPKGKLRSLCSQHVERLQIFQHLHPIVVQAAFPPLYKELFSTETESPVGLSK
Compound,Kd [1] [nM],IC50 ([2]; Conditions A) [nM],inhibition at 6 µM ([2]; Conditions A) [%],IC50 [3] [nM],other results
"CC(C)(O)CNC(=O)c1nc(C(=O)N2CCC(F)CC2)c(-c2cnc(NC3CCCCC3)cc2C2CC2)s1 [Example 64, 5-(6-(Cyclohexylamino)-4-cyclopropylpyridin-3-yl)-4-(4-fluoropiperidine-1-carbonyl)-N-(2-hydroxy-2-methylpropyl)thiazole-2-carboxamide]",17,63,96,220,
"C[C@H]1CCCN1C(=O)c1nc(C(=O)NCC(C)(C)O)sc1-c1cnc(NC2CCCCC2)cc1C(F)(F)F [Example 19, (S)-5-(6-(Cyclohexylamino)-4-(trifluoromethyl)pyridin-3-yl)-N-(2-hydroxy-2-methylpropyl)-4-(2-methylpyrrolidine-1-carbonyl)thiazole-2-carboxamide]",4.4,32,99,40,
"CC(C)Nc1cc(C(F)(F)F)c(-c2sc(C(=O)NCC(C)(C)O)nc2C(=O)N2CCC(F)CC2)cn1 [Example 12, 4-(4-Fluoropiperidine-1-carbonyl)-N-(2-hydroxy-2-methylpropyl)-5-(6-(isopropylamino)-4-(trifluoromethyl)pyridin-3-yl)thiazole-2-carboxamide]",63,,92,190,fold improvement in RORγt Thermofluor® binding assay activity ([1]; compared to Comparator Example 3): over 800 fold; IC50 ([2]; HEK293T cells): 850 nM
"C[C@H]1CCCCN1C(=O)c1nc(C(=O)NC2CCS(=O)(=O)CC2)sc1-c1cnc(NC2CCCCC2)cc1C1CC1 [Example 75, (S)-5-(6-(Cyclohexylamino)-4-cyclopropylpyridin-3-yl)-N-(1,1-dioxidotetrahydro-2H-thiopyran-4-yl)-4-(2-methylpiperidine-1-carbonyl)thiazole-2-carboxamide]",,,,14,"RORγt (FL) Reporter Assay B or C, % inhibition (value marked **) ([4]; Conditions B or C, marked **: footnote not shown): 108** %; IC50 ([4]; Conditions B or C): 7 nM"
"CC(C)(O)CNC(=O)c1nc(C(=O)N2CCC(F)CC2)c(-c2cnc(NC3CC4(CCC4)C3)cc2C(F)(F)F)s1 [Example 24, 4-(4-Fluoropiperidine-1-carbonyl)-N-(2-hydroxy-2-methylpropyl)-5-(6-(spiro[3.3]heptan-2-ylamino)-4-(trifluoromethyl)pyridin-3-yl)thiazole-2-carboxamide]",20,97,107,,
"CCOc1cc(NC2CCCCC2)ncc1-c1sc(C(=O)NCC(C)(C)O)nc1C(=O)N1CCC(F)CC1 [Example 69, 5-(6-(Cyclohexylamino)-4-ethoxypyridin-3-yl)-4-(4-fluoropiperidine-1-carbonyl)-N-(2-hydroxy-2-methylpropyl)thiazole-2-carboxamide]",170,630,85,,
"CC(C)(O)CNC(=O)c1nc(C(=O)N2CCC(F)CC2)c(-c2cnc(NC3CC4(C3)CC(F)(F)C4)cc2C(F)(F)F)s1 [Example 22, 5-(6-((6,6-Difluorospiro[3.3]heptan-2-yl)amino)-4-(trifluoromethyl)pyridin-3-yl)-4-(4-fluoropiperidine-1-carbonyl)-N-(2-hydroxy-2-methylpropyl)thiazole-2-carboxamide]",440,910,84,,
"CC(C)(O)CNC(=O)c1nc(C(=O)N2CCC(F)CC2)c(-c2cnc(NC3CCCCC3)c(C#N)c2C(F)(F)F)s1 [Example 68, 5-(5-Cyano-6-(cyclohexylamino)-4-(trifluoromethyl)pyridin-3-yl)-4-(4-fluoropiperidine-1-carbonyl)-N-(2-hydroxy-2-methylpropyl)thiazole-2-carboxamide]",370,1100,70,,
"CC(C)(O)CNC(=O)c1nc(C(=O)N2CCC(F)CC2)c(-c2cnc(NC3CCCCC3)cc2C#N)s1 [Example 57, 5-(4-Cyano-6-(cyclohexylamino)pyridin-3-yl)-4-(4-fluoropiperidine-1-carbonyl)-N-(2-hydroxy-2-methylpropyl)thiazole-2-carboxamide]",79,78,106,,
"CC(C)(O)CNC(=O)c1nc(C(=O)N2CCC(F)CC2)c(-c2cnc(NCCC(F)(F)F)cc2C(F)(F)F)s1 [Example 8, 4-(4-Fluoropiperidine-1-carbonyl)-N-(2-hydroxy-2-methylpropyl)-5-(4-(trifluoromethyl)-6-((3,3,3-trifluoropropyl)amino)pyridin-3-yl)thiazole-2-carboxamide]",120,340,95,,
"CC(C)(O)CNC(=O)c1nc(C(=O)N2CCC(F)CC2)c(-c2cnc(NC3CC(F)(F)C3)c(C(F)(F)F)c2)s1 [Example 16, 5-(6-((3,3-Difluorocyclobutyl)amino)-5-(trifluoromethyl)pyridin-3-yl)-4-(4-fluoropiperidine-1-carbonyl)-N-(2-hydroxy-2-methylpropyl)thiazole-2-carboxamide]",130,470,105,,
"CC[C@H](Nc1cc(C(F)F)c(-c2sc(C(=O)NCC(C)(C)O)nc2C(=O)N2CCCC[C@@H]2C)cn1)C(F)(F)F [Example 91, 5-(4-(Difluoromethyl)-6-(((S)-1,1,1-trifluorobutan-2-yl)amino)pyridin-3-yl)-N-(2-hydroxy-2-methylpropyl)-4-((S)-2-methylpiperidine-1-carbonyl)thiazole-2-carboxamide]",,,,19,"RORγt (FL) Reporter Assay B or C, % inhibition (value marked *) ([4]; Conditions B or C, marked *: footnote not given): 96* %"
"CC(C)(O)CNC(=O)c1nc(C(=O)N2CCC(F)CC2)c(-c2cnc(NC3CCCCC3)cc2C(F)F)s1 [Example 14, 5-(6-(Cyclohexylamino)-4-(difluoromethyl)pyridin-3-yl)-4-(4-fluoropiperidine-1-carbonyl)-N-(2-hydroxy-2-methylpropyl)thiazole-2-carboxamide]",33,76,105,,
"Cc1c(-c2sc(C(=O)NCC(C)(C)O)nc2C(=O)N2CCC(F)CC2)cnc(NC2CCCCC2)c1C#N [Example 60, 5-(5-Cyano-6-(cyclohexylamino)-4-methylpyridin-3-yl)-4-(4-fluoropiperidine-1-carbonyl)-N-(2-hydroxy-2-methylpropyl)thiazole-2-carboxamide]",160,430,90.3,,
"C[C@H]1CCCCN1C(=O)c1nc(C(=O)NCC(C)(C)O)sc1-c1cnc(NC2CCCCC2)cc1C1CC1 [Example 76, (S)-5-(6-(Cyclohexylamino)-4-cyclopropylpyridin-3-yl)-N-(2-hydroxy-2-methylpropyl)-4-(2-methylpiperidine-1-carbonyl)thiazole-2-carboxamide]",,,,20,"IC50 ([4]; Conditions B or C): 3.8 nM; inhibition at 6 µM ([4]; read-out: RORγt (FL) Reporter Assay B or C, % inhibition @ 6 μM, Conditions B or C, @ 6 μM): 108%"
